For one data set, the target named is T1, PI3Kα (Homo sapiens, UniProt P42336).
T1 construct: purchased Millipore 14-602-K
The data set is described as follows: In vitro test of enzyme activity (ADP-Glo lipokinase), PI3K alpha. It is filed as biochemical. As to conditions: 40 μM ATP, 50 μM PIP2:3PS, 120 min.

Data set [1] can be described thus: In vivo DMPK study in mice after a single administration. To be noted: female, Balb/c, mouse, plasma, intravenous 1 mg/kg. Also noted: species or system female Balb/c mice. As for the experimental part:
Experimental objective: female Balb/c mice were used as the test animals, and the blood concentration of the compound was determined and the pharmacokinetic behavior was evaluated after a single administration.
Experimental operation: 12 healthy adult female Balb/c mice were selected, 6 for intravenous injection group and 6 for oral administration group. The compound to be tested was mixed with an appropriate amount of intravenous injection group vehicle (10% HP-betaCD: 10% solutol=1:1, pH=8), vortex-mixed and sonicated to prepare a 1.0 mg/mL clear solution, followed by filtration for subsequent use; the vehicle in the oral group was 0.5% MC/0.2% Tw80. After the test compound and the vehicle were mixed, it was vortex-mixed and sonicated to prepare a 1.0 mg/mL homogeneous suspension for subsequent use. After an intravenous administration at a dose of 1 mg/kg or an oral administration at the dose of 2 mg/kg and 10 mg/kg, whole blood of the mice was collected for a certain period of time to prepare plasma. The drug concentration was analyzed by LC-MS/MS method, and Phoenix WinNonlin software was used (Pharsight, USA) to calculate the pharmacokinetic parameters.
Cmax: the highest concentration of the drug in the body; F %: oral bioavailability; Oral DNAUC: area under the dose normalization curve; Vd: apparent volume of distribution; Cl: clearance rate; T1/2: half-life.

In data set [2] the test system is phosphorylation of PI3K downstream protein Akt in MCF7 cells. The data set is described as follows: In vitro test of cells activity: ELISA of Akt phosphorylation in MCF7 cells. It is filed as cell-based. To be noted: Homo sapiens, MCF7, 2 h, 2 h compound, insulin 10 μg/mL stimulation, pAkt ELISA, read-out: MCF7 Cell IC50. The essentials: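 MCF7 cells were serum-starved overnight, exposed to 10-point three-fold compound dilutions for 2 h at 37°C, then stimulated with 10 μg/mL insulin for 30 min. Lysates were assayed for phospho-Akt by ELISA.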

T1 sequence (P42336 whole entry): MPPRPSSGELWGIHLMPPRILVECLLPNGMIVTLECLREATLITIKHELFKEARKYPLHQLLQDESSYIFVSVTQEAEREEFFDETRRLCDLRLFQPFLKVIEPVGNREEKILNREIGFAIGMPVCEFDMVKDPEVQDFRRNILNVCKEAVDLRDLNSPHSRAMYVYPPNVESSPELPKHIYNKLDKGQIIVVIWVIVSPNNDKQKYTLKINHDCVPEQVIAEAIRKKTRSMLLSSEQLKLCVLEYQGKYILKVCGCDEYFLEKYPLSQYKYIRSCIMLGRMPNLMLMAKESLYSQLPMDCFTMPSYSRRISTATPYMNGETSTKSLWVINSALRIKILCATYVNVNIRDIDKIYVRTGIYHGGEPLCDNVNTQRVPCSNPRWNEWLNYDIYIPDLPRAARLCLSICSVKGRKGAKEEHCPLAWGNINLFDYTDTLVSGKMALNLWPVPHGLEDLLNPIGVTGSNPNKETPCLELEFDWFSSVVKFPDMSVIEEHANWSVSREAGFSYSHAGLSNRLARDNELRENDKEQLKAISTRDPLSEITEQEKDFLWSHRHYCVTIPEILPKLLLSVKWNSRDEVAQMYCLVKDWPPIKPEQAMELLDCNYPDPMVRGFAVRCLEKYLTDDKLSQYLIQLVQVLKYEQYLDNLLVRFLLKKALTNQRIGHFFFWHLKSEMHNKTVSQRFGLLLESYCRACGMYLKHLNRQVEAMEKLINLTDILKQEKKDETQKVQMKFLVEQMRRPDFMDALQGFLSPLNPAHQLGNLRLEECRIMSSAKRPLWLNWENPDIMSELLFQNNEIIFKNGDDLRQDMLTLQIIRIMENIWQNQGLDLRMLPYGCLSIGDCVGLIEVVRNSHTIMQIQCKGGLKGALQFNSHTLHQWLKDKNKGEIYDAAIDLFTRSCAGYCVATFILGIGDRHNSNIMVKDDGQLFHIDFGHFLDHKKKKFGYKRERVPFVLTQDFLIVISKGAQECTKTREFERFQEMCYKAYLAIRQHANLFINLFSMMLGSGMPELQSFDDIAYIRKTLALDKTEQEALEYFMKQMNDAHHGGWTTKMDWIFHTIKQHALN
T1 sequence (P27986 whole entry partner): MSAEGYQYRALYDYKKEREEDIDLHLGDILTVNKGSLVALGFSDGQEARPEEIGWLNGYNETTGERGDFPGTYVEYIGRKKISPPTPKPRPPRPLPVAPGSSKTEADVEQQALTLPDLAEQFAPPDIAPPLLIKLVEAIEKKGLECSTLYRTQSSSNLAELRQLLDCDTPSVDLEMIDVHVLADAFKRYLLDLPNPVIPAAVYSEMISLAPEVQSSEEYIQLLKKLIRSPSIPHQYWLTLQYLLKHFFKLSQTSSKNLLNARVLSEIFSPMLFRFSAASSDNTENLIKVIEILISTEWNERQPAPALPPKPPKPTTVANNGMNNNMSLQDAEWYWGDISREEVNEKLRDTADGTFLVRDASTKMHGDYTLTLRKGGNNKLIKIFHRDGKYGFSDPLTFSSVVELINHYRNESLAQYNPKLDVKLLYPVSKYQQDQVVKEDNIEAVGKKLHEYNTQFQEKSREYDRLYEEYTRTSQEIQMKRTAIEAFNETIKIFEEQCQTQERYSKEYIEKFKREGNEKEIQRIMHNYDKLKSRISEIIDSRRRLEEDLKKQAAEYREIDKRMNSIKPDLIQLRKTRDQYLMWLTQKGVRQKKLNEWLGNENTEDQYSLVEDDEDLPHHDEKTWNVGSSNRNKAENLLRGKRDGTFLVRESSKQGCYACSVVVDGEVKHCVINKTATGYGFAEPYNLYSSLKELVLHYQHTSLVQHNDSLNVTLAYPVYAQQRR

For orientation: IC50 means the concentration that inhibits the measured activity by half. A word on the clearance: it is a measure of how efficiently the substance is removed, as volume per time. As to `CNC(=O)CCCn1cnc2ccc(-c3cnc(OC)c(NS(=O)(=O)c4ccc(F)cc4Cl)c3)cc2c1=O` [WX198], the figures for the IC50 (against PI3Kα; in data set [2]) were 1.1 nM and 9.43 nM, respectively. Further, the clearance in data set [1] (read-out: Cl (clearance rate)) is 4.16 mL/min/kg. In data set [1] (read-out: Intravenous injection T1/2 (converted)), the half-life is 53.4 min. For the same compound, the Vd in data set [1] (read-out: Vd (apparent volume of distribution)) was 0.257 L/kg.

The values above are taken from patent publication US20200317660A1, “Quinazolinone Compound and Application Thereof” (LUOXIN PHARMACEUTICAL (SHANGHAI) CO., LTD., priority 2017, published 2020).
